SMILES strings stand for the structures. pEC50, pIC50: −log10 of the molar value. Converted amounts (≈) assume the structure as drawn. “And” between values parts separate entries of the source, which are not always exact repeats. Equal values may be shown once.

Data set [1] in a line: Kinetic aqueous solubility (UHPLC, PBS pH 7.4). The class given is physicochemical. The conditions noted are these: phosphate buffered saline, UHPLC UV/MS. The protocol:
This assay was conducted as previously described: […]
(§1) were prepared by adding a volume (5 µL) of the 10 mM solution to a volume (195 µL) of […]
format). Samples were then drawn through the filter using vacuum. The filtrate from the above […]
formic acid gradient elution. The UHPLC parameters are shown below:
Gradient program: Initial: 98% A, 2% B
Re-equilibration time: 0.6 min
Autosampler temperature: 25°C
Detector wavelength: 254 nm

Data set [2] can be described thus: Mouse microsomal intrinsic clearance. The format is in vitro ADME. The conditions noted are these: mouse liver microsomes, scaling 52.5 mg microsomal protein/g liver. The method, then: Mouse microsomal intrinsic clearance.
This assay was conducted as previously described:
J.; Reid, I. H.; Hill, A. P.;
as §1
In general terms: Liver microsomes are a subcellular fraction often used to study metabolism.

The test system of data set [3] is intracellular T. cruzi X10/7 A1 amastigotes.
Data set [4] deals with Human 20S proteasome (Homo sapiens, UniProt P28074+P49721). Description: human proteasome assay (chymotrypsin-like activity, Suc-LLVY-Rho-110-DPro). The conditions noted are these: for Emax: read-out: Hs Prot Max Response (%), individual replicate.
Method: T. cruzi and human proteasome assays
(§2) The T. cruzi proteasome was partially purified as described in the above reference and Human
(§3) 20S proteasome was purchased from Boston Biochem (now R&D Systems, catalogue number
(§4) a Tecan Fluent to titrate over 11 points in Labcyte Echo-compatible Greiner Bio-One 384 well
(§5) polypropylene microplates. Subsequently, 100 nl of test compound titrations were transferred
(§6) to black Greiner Bio-One low volume 384 well microplates using a Labcyte Echo acoustic
(§7) 50 mM HEPES pH 7.5, 150 mM sodium chloride, 5% Glycerol, 1 mM dithiothreitol, 1 mM
(§8) CHAPS in deionised, filtered water (all chemicals purchased from Sigma Aldrich). Human 20S
(§9) These enzyme solutions were prepared immediately prior to assay initiation and stored at 4 °C
(§10) To monitor the Chymotrypsin-like activity of the T. cruzi and Human 20S proteasome proteins
(§11) a self-quenched, Rhodamine 110-labelled peptide with the sequence Suc-LLVY-Rho-110-
(§12) DPro was used (prepared by Cambridge Research Biochemicals. Suc is succinyl, while DPro
(§13) refers to ᴅ-proline). The peptide was initially prepared from solid as a 10 mM solution in 100%
(§14) DMSO and stored at -20 °C. Prior to use in the assay, an aliquot was thawed at room
(§15) to twofold Km. For use with the Human 20S proteasome, the Suc-LLVY-Rho-110-DPro
(§16) peptide was diluted in assay buffer to a concentration equivalent to twofold Km, which for this
(§17) enzyme was 2 μM. The peptide solutions were protected from light and stored at 4 °C before
(§18) A Multidrop Micro (Thermo Fisher), using a low volume dispense cassette, was used to add
(§19) the assay solutions to the test compounds in the low volume 384-well microplates. Prior to
(§20) addition of proteasome solution, 5 μl of assay buffer was added to one column (containing 100
(§21) nl, 100% DMSO) to act as no enzyme control to mimic full inhibition. Subsequently, 5 μl of
(§22) proteasome solution (either T. cruzi or Human 20S) was added to all wells on the test
(§23) microplate apart from the column containing 5 μl assay buffer. The microplate was then spun
(§24) using a suitable bench top centrifuge for 1 minute at 1000 rpm, before incubation at room
(§25) Following the initial incubation, 5 μl of substrate solution was then added to all wells on the
(§26) test microplate using a Multidrop Micro equipped with a discrete low volume dispense cassette.
(§27) The test microplates were then spun for 10 seconds at 1000 rpm before being rapidly moved to
(§28) a multi-mode microplate reader, capable of monitoring fluorescence intensity. The microplate
(§29) reader used for these studies was a Tecan M1000 Pro, equipped with quad monochromators.
(§30) 530 ± 5 nm. A series of fluorescence intensity measurements were taken every 30 seconds for
(§31) Subsequently, the fluorescence intensity measurements (relative fluorescence units, RFU) were
(§32) fit to a simple linear regression model (y = A + Bx, where y refers to the fluorescence intensity
(§33) and x refers to the time in seconds) to determine the initial rate of reaction. The initial rate for
(§34) every compound concentration tested was then fit a 4-parameter logistic model: y = (A + (B -
(§35) A)) / (1 + (x / C)D), where y refers to the assay response, x refers to the inhibitor concentration,
(§36) A and B are the range values (minimum and maximum, respectively), C is the IC50 value and
(§37) D is the slope. Potency values were then reported as pIC50, which is the negative log of the
(§38) IC50 (on a molar scale). Data analysis was automated and carried out using the ActivityBase
The target in data set [5] is T. cruzi proteasome (Trypanosoma cruzi, UniProt V5BU39+V5C017). The experiment in a line: T. cruzi proteasome assay (chymotrypsin-like activity, Suc-LLVY-Rho-110-DPro). The conditions noted are these: for Tc Prot Hill Slope / Tc Prot Max Response (%): individual replicate; for Emax: read-out: Tc Prot Max Response (%), individual replicate.
Sequence of T. cruzi proteasome (V5BU39 entry or part of it): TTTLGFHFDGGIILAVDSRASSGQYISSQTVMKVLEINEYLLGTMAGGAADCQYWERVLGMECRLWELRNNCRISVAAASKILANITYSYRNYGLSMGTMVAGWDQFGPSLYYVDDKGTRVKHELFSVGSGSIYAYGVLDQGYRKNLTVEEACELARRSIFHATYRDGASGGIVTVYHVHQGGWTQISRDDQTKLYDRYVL
Sequence of T. cruzi proteasome (V5C017 entry or part of it): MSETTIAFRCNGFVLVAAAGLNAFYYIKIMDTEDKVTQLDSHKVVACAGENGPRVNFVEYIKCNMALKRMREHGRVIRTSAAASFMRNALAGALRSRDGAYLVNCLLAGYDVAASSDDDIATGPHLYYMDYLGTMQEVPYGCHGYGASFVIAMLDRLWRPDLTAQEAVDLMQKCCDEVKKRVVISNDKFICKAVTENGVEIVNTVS
Method: T. cruzi and human proteasome assays
as §2, §3, §4, §5, §6, §7, §8, §9, §10, §11, §12, §13, §14, §15, §16, §17, §18, §19, §20, §21, §22, §23, §24, §25, §26, §27, §28, §29, §30, §31, §32, §33, §34, §35, §36, §37, §38
The test system of data set [6] is host VERO cells.
A short description of data set [7]: ChromLogD. The format is physicochemical. The conditions noted are these: pH 7.4; read-out: Chrom LogDpH7.4. The protocol:
Chrom LogD was measured as previously described:
solubility and hydrophobicity. Drug Discov. Today 2010, 15, 648−655. […]

The mark [8] stands for this setting: mean of at least three independent replicates.
The mark [9] stands for this setting: T. cruzi Prot pIC50, mean of at least three independent replicates.
Setting [10] is: Tc Prot pIC50, individual replicate.

Usually solubility stands for the concentration that dissolves in the medium under given conditions. Read a high solubility as much dissolved substance. What is called pEC50 is the EC50 on a negative log10 scale, so that one unit is a factor of ten. The term pIC50 denotes the negative decadic logarithm of the IC50, by convention in mol/L. A high value points to a low IC50. Turning to `O=C(Nc1ccc(F)c(C(=O)NC2CC2)c1)c1ccc(=O)n(Cc2ccc(Cl)c(F)c2)n1` [Compound 17, 1-[(4-Chloro-3-fluorophenyl)methyl]-N-[3-(cyclopropylcarbamoyl)-4-fluorophenyl]-6-oxo-pyridazine-3-carboxamide], the solubility at 24 h in data set [1] stood at 21 µM (≈ 9.64 µg/mL). Also, in data set [2], the “Mouse CLi” value was 4.8 mL/min/g. In addition, the figures for the pEC50 in data set [3] and in data set [6] were 6.70 and less than 4.30, respectively. In addition, the Emax in data set [3] is 90% and 93%; in data set [5], 80%. The “Hs Prot Max Response (%)” value in data set [4] (individual replicate) is 21% and 22% and 27% and 11%. The “Hs Prot pIC50” value in data set [4] (individual replicate) and in data set [4] (setting [8]) was less than 4 each time. Also, the pIC50 is 7.60 in data set [5] (setting [9]); 7.40 and 7.70 in data set [5] (setting [10]). The “Tc Prot Hill Slope” value in data set [5] is 0.9 and 1.0. Further, in data set [5], the “Tc Prot Max Response (%)” value was 87% and 86%. Also, the chromatographic logD in data set [7] amounted to 5.1.
The compound `COc1ccc(Cn2nc(C(=O)Nc3ccc(F)c(C(=O)NC4CC4)c3)ccc2=O)cc1Cl` [Compound 14, 1-[(3-Chloro-4-methoxy-phenyl)methyl]-N-[3-(cyclopropylcarbamoyl)-4-fluorophenyl]-6-oxo-pyridazine-3-carboxamide] showed a solubility at 24 h in data set [1] of less than 1 µM. Also, the “Mouse CLi” value in data set [2] amounted to 1.6 mL/min/g. Besides, the negative-log EC50 (pEC50) in data set [3] was 7.30 and 7.40 and 7.20; in data set [6], less than 4.30. The Emax in data set [3] is 92% and 94% and 90% and 93%; in data set [5], 80%. The “Hs Prot Max Response (%)” value in data set [4] (individual replicate) was 17% and 49%. Moreover, the “Hs Prot pIC50” value in data set [4] (individual replicate) and in data set [4] (setting [8]) was less than 4 throughout. Also, the negative-log IC50 (pIC50) in data set [5] (setting [9]) was > 8.00 and 8.50; in data set [5] (setting [10]) it was 8.30 and 8.70. The “Tc Prot Hill Slope” value in data set [5] is 0.95 and 0.9. Further, the “Tc Prot Max Response (%)” value in data set [5] came out at 86%. Moreover, in data set [7], the chromatographic logD was 4.7.
Consider `O=C(NC1CC1)c1ccc(F)c(NC(=O)c2ccc(=O)n(Cc3ccccc3)n2)c1` [Compound 10, 1-Benzyl-N-(5-(cyclopropylcarbamoyl)-2-fluorophenyl)-6-oxo-1,6-dihydropyridazine-3-carboxamide], for which the solubility at 24 h in data set [1] stood at 1.5 µM (≈ 0.61 µg/mL). The “Mouse CLi” value in data set [2] was found to be 3.1 mL/min/g. Besides, the pEC50 in data set [3] and in data set [6] was less than 4.30 each time. Moreover, the “Hs Prot Max Response (%)” value in data set [4] (individual replicate) was 17% and 3% and 2.27%. Further, the “Hs Prot pIC50” value in data set [4] (individual replicate) and in data set [4] (setting [8]) was less than 4 each time. Besides, the negative logarithm of the IC50 (pIC50) in data set [5] (setting [9]) was 5.80; in data set [5] (setting [10]) it was less than 4.00. Besides, the “Tc Prot Hill Slope” value in data set [5] came to 1.2. Besides, in data set [5], the “Tc Prot Max Response (%)” value is 35% and 20% and 57%. Besides, the chromatographic logD in data set [7] was 4.1.
`O=C(Nc1ccc(F)c(C(=O)NC2CC2)c1)c1ccc(=O)n(Cc2ccccc2)n1` [Compound 9, 1-Benzyl-N-(3-(cyclopropylcarbamoyl)-4-fluorophenyl)-6-oxo-1,6-dihydropyridazine-3-carboxamide] gave a solubility at 24 h in data set [1] of 218 µM (≈ 88.6 µg/mL). Moreover, the “Mouse CLi” value in data set [2] came to 6.7 mL/min/g. Moreover, the negative-log EC50 (pEC50) in data set [3] is 5.70; in data set [6], less than 4.30. For the same compound, the Emax in data set [3] was 94% and 90% and 82% and 88% and 89%; in data set [4], 7%; in data set [5], 71%; in data set [6], 29%. For the same compound, the “Hs Prot Max Response (%)” value in data set [4] (individual replicate) was 8.53% and 11% and 6%. Also, the “Hs Prot pIC50” value in data set [4] (individual replicate) and in data set [4] (setting [8]) was less than 4 in each case. Also, the pIC50 in data set [5] (setting [9]) was 6.80; in data set [5] (setting [10]) it was 6.60 and 6.70 and 7.00. For the same compound, the “Tc Prot Hill Slope” value in data set [5] is 1.0 and 0.9. Further, the “Tc Prot Max Response (%)” value in data set [5] was 83% and 82%. For the same compound, in data set [7], the chromatographic logD was determined as 4.2.
In the case of `O=C(Nc1ccc(F)c(C(=O)NC2CC2)c1)c1ccc(=O)n(CC2CCCCC2)n1` [Compound 11, 1-(Cyclohexylmethyl)-N-(3-(cyclopropylcarbamoyl)-4-fluorophenyl)-6-oxo-1,6-dihydropyridazine-3-carboxamide], the “Mouse CLi” value in data set [2] came out at 7.3 mL/min/g. The pEC50 is 5.10 and 5.00 and 5.30 and 5.20 in data set [3]; less than 4.30 in data set [6]. For the same compound, the Emax in data set [3] is 84% and 78% and 86% and 88%; in data set [5], 78%; in data set [6], 11%. In addition, the “Hs Prot Max Response (%)” value in data set [4] (individual replicate) was 13% and 33%. The “Hs Prot pIC50” value in data set [4] (individual replicate) and in data set [4] (setting [8]) was less than 4 throughout. The pIC50 is 6.40 in data set [5] (setting [9]); 6.30 and 6.50 in data set [5] (setting [10]). The “Tc Prot Hill Slope” value in data set [5] is 0.9 and 0.85. The “Tc Prot Max Response (%)” value in data set [5] is on record as 87%. The chromatographic logD in data set [7] came to 5.3.
With `CN(C(=O)c1cccc(NC(=O)c2ccc(=O)n(Cc3ccccc3)n2)c1)C1CC1` [Compound 7, 1-Benzyl-N-(3-(cyclopropyl(methyl)carbamoyl)phenyl)-6-oxo-1,6-dihydropyridazine-3-carboxamide], the “Mouse CLi” value in data set [2] is on record as 19 mL/min/g. Besides, in data set [3], the pEC50 was less than 4.30 and the Emax turned out to be 42%. Moreover, in data set [4] (individual replicate), the “Hs Prot Max Response (%)” value was 20% and 27% and 10%; the “Hs Prot pIC50” value was less than 4. Also, the “Hs Prot pIC50” value in data set [4] (setting [8]) is less than 4. In addition, in data set [5] (setting [9]), the negative-log IC50 (pIC50) was 4.70. Further, in data set [5] (setting [10]), the negative logarithm of the IC50 (pIC50) is 4.60 and < 4.00 and 4.80. Moreover, in data set [5], the “Tc Prot Hill Slope” value was 0.8 and 0.75; the “Tc Prot Max Response (%)” value is 75% and 49% and 40% and 61%. In data set [6], this compound gave a negative logarithm of the EC50 (pEC50) of less than 4.30 and an Emax of 11%. Further, the chromatographic logD in data set [7] was determined as 4.5.
For `COc1ccc(Cn2nc(C(=O)Nc3ccc(F)c(C(=O)NC4CC4)c3)ccc2=O)cc1` [Compound 12, N-[3-(Cyclopropylcarbamoyl)-4-fluorophenyl]-1-[(4-methoxyphenyl)methyl]-6-oxo-pyridazine-3-carboxamide], in data set [1], the solubility at 24 h turned out to be 83 µM (≈ 36.2 µg/mL). Further, in data set [2], the “Mouse CLi” value is listed as 2.4 mL/min/g. In data set [3], the negative logarithm of the EC50 (pEC50) was 6.40 and 6.50 and 6.30; the Emax is 56% and 99% and 66%. Moreover, in data set [4] (individual replicate), the “Hs Prot Max Response (%)” value is 8% and 12% and 18%; the “Hs Prot pIC50” value was less than 4. For the same compound, the “Hs Prot pIC50” value in data set [4] (setting [8]) is on record as less than 4. In data set [5] (setting [9]), the pIC50 is 7.50. For the same compound, the negative logarithm of the IC50 (pIC50) in data set [5] (setting [10]) was 7.40 and 7.60. In data set [5], the “Tc Prot Hill Slope” value is 0.95 and 0.9; the “Tc Prot Max Response (%)” value was 80% and 85%; the Emax came out at 67%. Also, the chromatographic logD in data set [7] stood at 4.2.
Take `COc1ccc(Cn2nc(C(=O)Nc3ccc(F)c(C(=O)NC4CC4)c3)ccc2=O)cc1C#N` [Compound 16, 1-[(3-Cyano-4-methoxy-phenyl)methyl]-N-[3-(cyclopropylcarbamoyl)-4-fluorophenyl]-6-oxo-pyridazine-3-carboxamide]: the solubility at 24 h in data set [1] is less than 1 µM. In addition, the “Mouse CLi” value in data set [2] came to 0.7 mL/min/g. For the same compound, in data set [3], the pEC50 was 6.80 and 6.70 and 6.90 and 7.00; the Emax was 91% and 90% and 102% and 87% and 92%. Further, in data set [4] (individual replicate), the “Hs Prot Max Response (%)” value amounted to 5% and the “Hs Prot pIC50” value is less than 4. Also, the “Hs Prot pIC50” value in data set [4] (setting [8]) is on record as less than 4. Also, the Emax in data set [4] came out at 4%. Moreover, in data set [5] (setting [9]), the negative logarithm of the IC50 (pIC50) was 8.00. Further, in data set [5] (setting [10]), the negative-log IC50 (pIC50) is 7.90. Moreover, in data set [5], the “Tc Prot Hill Slope” value is 1.2 and 1.1; the “Tc Prot Max Response (%)” value was found to be 62%; the Emax was 72%. In addition, in data set [7], the chromatographic logD turned out to be 4.

Source of the values: publication PMC10424187, “Structure-Guided Design and Synthesis of a Pyridazinone Series of Trypanosoma cruzi Proteasome Inhibitors” (Journal of Medicinal Chemistry, 2023).
